Values of other authors as cited in patent EP4620459A1, “METFORMIN HYDROCHLORIDE ENTERIC-COATED TABLET” (Yayan (Tianjin) Biomedical Technology Center (Limited …, priority 2023, dated 2025).

Details: nausea, abdominal pain, abdominal discomfort, etc.

CN(C)C(=N)N=C(N)N [metformin]
incidence of gastrointestinal adverse reactions: 20-30%
